Measured values as given in patent US6461997B1, “Triazole sulfones having herbicidal activity” (Monsanto Technology LLC, priority 1999, dated 2002).

Legend:
XANST (cocklebur) = test: Pre-plant incorporated (PPI) herbicidal activity, warm season; format: in vivo, Xanthium strumarium; details: Xanthium strumarium, PPI application, read-out: Percent inhibition XANST
Procedure: (§1) In another set of tests, the pre-plant incorporated (PPI) activity of compounds of this invention was evaluated on the same species as for the pre-emergence tests described above. In the PPI tests the following procedure, designed to simulate PPI application, was used.
(§2) A pre-prepared topsoil mixture (described above) was placed in a pot and compacted to a depth of 1.0 to 1.25 cm from the top of the pot. Seeds of each of several monocotyledonous and dicotyledonous annual plant species were placed on top of the soil. A sufficient quantity of soil to cover the seeds and level fill the pot was weighed into an open container. A known amount of the test compound was dissolved or suspended in an organic solvent and applied by spraying to this cover soil. The cover soil was thoroughly mixed to distribute the test compound throughout the cover soil, and was then applied as a cover layer over the seeds. Untreated soil was used as a cover layer for control pots. After treatment the plants were placed in a greenhouse where they received 0.64 cm of overhead irrigation. All subsequent watering consisted of a light overhead mist and/or subirrigation as needed for germination and growth. Tables 9 and 10 below relate to warm season plant species which were placed after pre-emergence treatment in a greenhouse with a 30/21° C. day/night temperature regime. Tables 11 and 12 below relates to cool season plant species placed after pre-emergence treatment in a greenhouse or growth chamber with an 18/13° C. day/night temperature regime. Only the compounds of Examples 1, 6, 8, 11, 13 and 15-20 were included in PPI tests.
(§3) Approximately 14 days after planting and treating, the plants were observed and herbicidal efficacy recorded as percent inhibition by comparison with untreated plants.

STEME (common chickweed) = test: Pre-emergence herbicidal activity, cool season; format: in vivo, Stellaria media; details: lowest tested rate with 80% or greater inhibition; rates 300, 100, 30, 10 g/ha; about 14 days
Method in brief: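 GR80 values derive from percent inhibition relative to untreated plants, read roughly 14 days after sowing and pre-emergence soil-surface treatment (compound in 50:50 acetone/water; rates typically 10, 30, 100, 300 g/ha). Warm-season weeds grew at 30/21° C day/night, cool-season ones at 18/13° C; an asterisk marks activity without reaching 80% at the highest rate.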

[1] = system: AGRRE (quackgrass (seedling)); test: Pre-plant incorporated (PPI) herbicidal activity, cool season; format: in vivo, Elymus repens; details: for inhibition at 30 g/ha / inhibition at 100 g/ha / inhibition at 300 g/ha / inhibition at 900 g/ha: Elymus repens, weed, PPI application, read-out: Percent inhibition AGRRE; for PPI activity GR80, AGRRE: pre-plant incorporated, lowest tested rate with 80% or greater inhibition, about 14 days
Procedure: as §1, §2, §3

ECHCG (barnyardgrass) = test: Pre-plant incorporated (PPI) herbicidal activity, warm season; format: in vivo, Echinochloa crus-galli; details: for PPI activity GR80, ECHCG: pre-plant incorporated, lowest tested rate with 80% or greater inhibition, about 14 days
Procedure: as §1, §2, §3

SORVU (shattercane) = test: as above; format: in vivo, Sorghum vulgare; details: for PPI activity GR80, SORVU: pre-plant incorporated, lowest tested rate with 80% or greater inhibition, about 14 days
Procedure: as §1, §2, §3

[2] = system: AEGCY (jointed goatgrass); test: Post-emergence herbicidal activity, cool season; format: in vivo, Aegilops cylindrica; details: abraded plants sprayed at 300, 100, 30 and 10 g/ha; about 14 days after treatment
Method in brief: (§4)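 Post-emergence foliar spray; plants abraded (garnet 200w, ~850 kPa sandblast) before application. Rates 300/100/30/10 g/ha in 50:50 acetone:water, 3,100 l/ha, 511 kPa. Greenhouse 18/13° C. day/night; % inhibition vs abraded unsprayed controls at ~14 days after treatment, GR80 derived.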

SETFA (giant foxtail) = test: Pre-plant incorporated (PPI) herbicidal activity, warm season; format: in vivo, Setaria faberi; details: for PPI activity GR80, SETFA: pre-plant incorporated, lowest tested rate with 80% or greater inhibition, about 14 days
Procedure: as §1, §2, §3

LOLMG (annual ryegrass) = test: Post-emergence herbicidal activity, cool season; format: in vivo, Lolium multiflorum; details: abraded plants sprayed at 300, 100, 30 and 10 g/ha; about 14 days after treatment
Method in brief: as §4

[3] = Echinochloa crus-galli, PPI application, read-out: Percent inhibition ECHCG
[4] = Sorghum bicolor, PPI application, read-out: Percent inhibition SORVU
[5] = Setaria faberi, PPI application, read-out: Percent inhibition SETFA

| SMILES | inhibition at 30 g/ha (XANST (cocklebur)) | inhibition at 100 g/ha (XANST (cocklebur)) | inhibition at 300 g/ha (XANST (cocklebur)) | inhibition at 900 g/ha (XANST (cocklebur)) | Pre-emergence activity GR80, STEME (STEME (common chickweed)) | inhibition at 30 g/ha [1] | inhibition at 100 g/ha [1] | inhibition at 300 g/ha [1] | inhibition at 900 g/ha [1] | PPI activity GR80, AGRRE [1] | inhibition at 30 g/ha (ECHCG (barnyardgrass); [3]) | inhibition at 100 g/ha (ECHCG (barnyardgrass); [3]) | inhibition at 300 g/ha (ECHCG (barnyardgrass); [3]) | inhibition at 900 g/ha (ECHCG (barnyardgrass); [3]) | PPI activity GR80, ECHCG (ECHCG (barnyardgrass)) | inhibition at 30 g/ha (SORVU (shattercane); [4]) | inhibition at 100 g/ha (SORVU (shattercane); [4]) | inhibition at 300 g/ha (SORVU (shattercane); [4]) | inhibition at 900 g/ha (SORVU (shattercane); [4]) | PPI activity GR80, SORVU (SORVU (shattercane)) | further results |
| --- | --- | --- | --- | --- | --- | --- | --- | --- | --- | --- | --- | --- | --- | --- | --- | --- | --- | --- | --- | --- | --- |
| CCN(CC)C(=O)n1cnc(S(=O)(=O)C(F)(F)Br)n1 [Example 1, 3-(bromodifluoromethylsulfonyl)-1-(N,N-diethylcarbamoyl)-1,2,4-triazole] | 0% | 0% | 0% | 0% | 100 g/ha | 0% | 20% | 60% | 95% | * (activity observed, at least at highest rate, but <80% inhibition) | 20% | 99% | 100% | 100% | 30 g/ha | 80% | 100% | 100% | 100% | 100 g/ha | inhibition at 10 g/ha (XANST (cocklebur); 10 g/ha): 0%; inhibition at 10 g/ha (ECHCG (barnyardgrass); Echinochloa crus-galli, PPI application, 10 g/ha, read-out: Percent inhibition ECHCG): 0%; inhibition at 10 g/ha (SORVU (shattercane); Sorghum bicolor, PPI application, 10 g/ha, read-out: Percent inhibition SORVU): 20%; Post-emergence activity GR80, AEGCY [2]: [empty]; inhibition at 10 g/ha (SETFA (giant foxtail); Setaria faberi, PPI application, 10 g/ha, read-out: Percent inhibition SETFA): 100%; inhibition at 30 g/ha (SETFA (giant foxtail); [5]): 70%; inhibition at 100 g/ha (SETFA (giant foxtail); [5]): 100%; inhibition at 300 g/ha (SETFA (giant foxtail); [5]): 100%; inhibition at 900 g/ha (SETFA (giant foxtail); [5]): 100%; PPI activity GR80, SETFA (SETFA (giant foxtail)): 30 g/ha; Post-emergence activity GR80, LOLMG (LOLMG (annual ryegrass)): [empty] |
| CCSC(F)(F)S(=O)(=O)c1ncn(C(=O)N(CC)CC)n1 [Example 8, 1-(N,N-diethylcarbamoyl)-3-[difluoro(ethylthio)methylsulfonyl]-1,2,4-triazole] | 0% | 0% | 20% | 50% | [empty] | 0% | 40% | 70% | 100% | 300 g/ha | 90% | 100% | 100% | 100% | 30 g/ha | 50% | 70% | 100% | 100% | 300 g/ha | Post-emergence activity GR80, AEGCY [2]: [empty]; inhibition at 30 g/ha (SETFA (giant foxtail); [5]): 90%; inhibition at 100 g/ha (SETFA (giant foxtail); [5]): 100%; inhibition at 300 g/ha (SETFA (giant foxtail); [5]): 100%; inhibition at 900 g/ha (SETFA (giant foxtail); [5]): 100%; PPI activity GR80, SETFA (SETFA (giant foxtail)): 30 g/ha; Post-emergence activity GR80, LOLMG (LOLMG (annual ryegrass)): [empty] |
